How the values were obtained:
[1] = target: T1, Tyrosine kinase 2 TK2 (JH2 domain pseudokinase) (Homo sapiens, UniProt P29597); assay: KINOMEscan competition binding, single concentration […]; details: read-out: % of control at 100 μM
T1 construct: gene TYK2; JH2 domain pseudokinase

CDK5 = CDK5 (Homo sapiens, UniProt Q00535); assay: biochemical; parameters: KINOMEscan scanMAX active site-directed competition binding assay, percent of control, 468 kinases; details: competition binding, percent of control
Protocol: (§1) The KINOMEscan^TM screening platform (scanMAX assay) employs a proprietary active site-directed competition binding assay that quantitatively measures the interactions between test compounds (here 100 μM S-carvone) and 468 human protein kinases. The assay was performed at Eurofins DiscoverX Corp. (Fremont, CA, USA). Blocking protein kinase C (PKC) activity was reported to inhibit the transcription of CYP1A1 but to exert no effect on the nuclear translocation of AhR[26], which was also the case here with carvones. Therefore, we tested whether carvones inhibit PKC catalytic activity. […] We also evaluated the interaction between 100 μM S-carvone and 468 human protein kinases, employing KINOMEscan^TM (scanMAX assay), a proprietary active site-directed competition binding assay. The minimal inhibitory threshold used by the screening platform KINOMEscan^TM is 35% of the control kinase activity. Among 468 kinases tested, 467 were above the 35% cutoff. Tyrosine kinase 2 TK2 (JH2 domain pseudokinase) activity was inhibited to 27% of the control activity, but this kinase is not relevant to the regulation of transcription activity (Fig. 5B; Figure S9). Overall, we excluded the possibility that the effects of carvones on AhR signaling are caused indirectly by the inhibition of the human kinome, particularly PKC.

CLK3 = CLK3 (Homo sapiens, UniProt P49761); assay: biochemical; parameters: KINOMEscan scanMAX active site-directed competition binding assay, percent of control, 468 kinases; details: competition binding, percent of control
Protocol: as §1

[2] = target: T2, RPS6KA5(Kin.Dom.1-N-terminal) (Homo sapiens, UniProt O75582); assay: biochemical; parameters: KINOMEscan scanMAX active site-directed competition binding assay, percent of control, 468 kinases; details: competition binding, percent of control
T2 construct: Kin.Dom.1-N-terminal
Protocol: as §1

ROS1 = ROS1 (Homo sapiens, UniProt P08922); assay: biochemical; parameters: KINOMEscan scanMAX active site-directed competition binding assay, percent of control, 468 kinases; details: competition binding, percent of control
Chain of ROS1 (P08922 whole entry): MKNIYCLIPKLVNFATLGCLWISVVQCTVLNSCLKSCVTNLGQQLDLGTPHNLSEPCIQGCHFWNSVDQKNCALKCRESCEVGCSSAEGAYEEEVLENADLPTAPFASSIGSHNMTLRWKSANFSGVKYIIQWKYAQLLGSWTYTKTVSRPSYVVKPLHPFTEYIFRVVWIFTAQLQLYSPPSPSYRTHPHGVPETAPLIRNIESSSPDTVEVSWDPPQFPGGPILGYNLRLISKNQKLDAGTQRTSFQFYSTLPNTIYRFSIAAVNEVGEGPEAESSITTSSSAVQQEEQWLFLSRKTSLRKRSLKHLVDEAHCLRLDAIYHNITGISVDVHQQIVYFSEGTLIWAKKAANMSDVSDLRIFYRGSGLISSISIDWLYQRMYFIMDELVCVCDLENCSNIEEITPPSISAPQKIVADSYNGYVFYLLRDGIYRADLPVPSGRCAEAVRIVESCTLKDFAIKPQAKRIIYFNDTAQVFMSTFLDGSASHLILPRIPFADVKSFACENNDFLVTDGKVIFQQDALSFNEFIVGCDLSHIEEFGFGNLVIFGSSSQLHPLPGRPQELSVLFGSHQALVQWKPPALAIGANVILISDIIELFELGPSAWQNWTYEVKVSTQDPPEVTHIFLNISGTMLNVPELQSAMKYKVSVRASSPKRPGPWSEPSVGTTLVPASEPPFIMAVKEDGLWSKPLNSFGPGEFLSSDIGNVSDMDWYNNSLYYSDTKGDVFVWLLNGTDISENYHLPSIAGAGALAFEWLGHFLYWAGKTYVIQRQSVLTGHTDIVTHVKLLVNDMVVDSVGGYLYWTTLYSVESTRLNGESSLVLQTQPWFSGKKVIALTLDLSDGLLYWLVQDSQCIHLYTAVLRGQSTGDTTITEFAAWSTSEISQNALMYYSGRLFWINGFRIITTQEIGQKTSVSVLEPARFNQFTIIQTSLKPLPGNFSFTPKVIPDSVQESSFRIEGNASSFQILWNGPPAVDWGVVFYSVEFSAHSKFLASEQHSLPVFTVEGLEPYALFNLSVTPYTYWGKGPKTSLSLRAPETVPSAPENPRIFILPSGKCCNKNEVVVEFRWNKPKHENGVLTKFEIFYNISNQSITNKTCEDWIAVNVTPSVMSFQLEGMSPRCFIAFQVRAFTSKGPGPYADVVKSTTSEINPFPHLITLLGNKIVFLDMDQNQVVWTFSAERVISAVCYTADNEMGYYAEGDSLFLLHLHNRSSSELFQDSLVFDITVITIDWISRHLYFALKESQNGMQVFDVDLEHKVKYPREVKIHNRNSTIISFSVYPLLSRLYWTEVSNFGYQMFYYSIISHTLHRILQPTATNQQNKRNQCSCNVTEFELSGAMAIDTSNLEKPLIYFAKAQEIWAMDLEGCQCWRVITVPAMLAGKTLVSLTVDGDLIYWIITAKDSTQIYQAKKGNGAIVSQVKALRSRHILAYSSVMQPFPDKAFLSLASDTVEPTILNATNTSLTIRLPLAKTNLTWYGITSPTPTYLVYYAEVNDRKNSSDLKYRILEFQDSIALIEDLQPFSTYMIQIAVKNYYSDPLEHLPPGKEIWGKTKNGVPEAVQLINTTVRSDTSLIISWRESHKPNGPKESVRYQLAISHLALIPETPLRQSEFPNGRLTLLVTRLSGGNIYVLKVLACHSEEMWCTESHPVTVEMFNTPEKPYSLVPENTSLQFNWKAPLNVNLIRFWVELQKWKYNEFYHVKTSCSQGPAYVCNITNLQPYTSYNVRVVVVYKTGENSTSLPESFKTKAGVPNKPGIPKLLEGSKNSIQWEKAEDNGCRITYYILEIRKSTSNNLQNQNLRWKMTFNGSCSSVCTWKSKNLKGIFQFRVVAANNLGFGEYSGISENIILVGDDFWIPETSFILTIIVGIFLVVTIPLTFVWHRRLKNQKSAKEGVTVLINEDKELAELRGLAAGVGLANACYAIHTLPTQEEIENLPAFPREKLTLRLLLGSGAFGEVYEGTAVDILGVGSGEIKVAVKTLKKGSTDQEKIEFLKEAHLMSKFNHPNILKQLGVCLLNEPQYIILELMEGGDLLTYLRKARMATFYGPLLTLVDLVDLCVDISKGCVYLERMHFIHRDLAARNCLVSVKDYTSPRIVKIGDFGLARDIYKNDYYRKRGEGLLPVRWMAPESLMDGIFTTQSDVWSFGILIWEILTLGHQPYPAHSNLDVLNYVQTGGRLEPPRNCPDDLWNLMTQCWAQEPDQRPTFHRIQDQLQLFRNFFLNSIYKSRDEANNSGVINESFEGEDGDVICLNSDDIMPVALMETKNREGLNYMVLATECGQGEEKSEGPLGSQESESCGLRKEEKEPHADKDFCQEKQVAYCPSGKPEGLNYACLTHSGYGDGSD
Protocol: as §1

PKAC-beta = target: T3, PKAC-beta (Homo sapiens, UniProt P22694); assay: biochemical; parameters: KINOMEscan scanMAX active site-directed competition binding assay, percent of control, 468 kinases; details: competition binding, percent of control
T3 construct: gene PRKACB
Protocol: as §1

SgK110 = target: T4, SgK110 (Homo sapiens, UniProt P0C264); assay: biochemical; parameters: KINOMEscan scanMAX active site-directed competition binding assay, percent of control, 468 kinases; details: competition binding, percent of control
T4 construct: gene SBK3
Protocol: as §1

[3] = target: T5, ABL1(E255K)-phosphorylated (Homo sapiens, UniProt P00519, E255K); assay: biochemical; parameters: KINOMEscan scanMAX active site-directed competition binding assay, percent of control, 468 kinases; details: competition binding, percent of control
T5 construct: phosphorylated
Protocol: as §1

HCK = HCK (Homo sapiens, UniProt P08631); assay: biochemical; parameters: KINOMEscan scanMAX active site-directed competition binding assay, percent of control, 468 kinases; details: competition binding, percent of control
Protocol: as §1

TYRO3 = TYRO3 (Homo sapiens, UniProt Q06418); assay: biochemical; parameters: KINOMEscan scanMAX active site-directed competition binding assay, percent of control, 468 kinases; details: competition binding, percent of control
Chain of TYRO3 (Q06418 whole entry): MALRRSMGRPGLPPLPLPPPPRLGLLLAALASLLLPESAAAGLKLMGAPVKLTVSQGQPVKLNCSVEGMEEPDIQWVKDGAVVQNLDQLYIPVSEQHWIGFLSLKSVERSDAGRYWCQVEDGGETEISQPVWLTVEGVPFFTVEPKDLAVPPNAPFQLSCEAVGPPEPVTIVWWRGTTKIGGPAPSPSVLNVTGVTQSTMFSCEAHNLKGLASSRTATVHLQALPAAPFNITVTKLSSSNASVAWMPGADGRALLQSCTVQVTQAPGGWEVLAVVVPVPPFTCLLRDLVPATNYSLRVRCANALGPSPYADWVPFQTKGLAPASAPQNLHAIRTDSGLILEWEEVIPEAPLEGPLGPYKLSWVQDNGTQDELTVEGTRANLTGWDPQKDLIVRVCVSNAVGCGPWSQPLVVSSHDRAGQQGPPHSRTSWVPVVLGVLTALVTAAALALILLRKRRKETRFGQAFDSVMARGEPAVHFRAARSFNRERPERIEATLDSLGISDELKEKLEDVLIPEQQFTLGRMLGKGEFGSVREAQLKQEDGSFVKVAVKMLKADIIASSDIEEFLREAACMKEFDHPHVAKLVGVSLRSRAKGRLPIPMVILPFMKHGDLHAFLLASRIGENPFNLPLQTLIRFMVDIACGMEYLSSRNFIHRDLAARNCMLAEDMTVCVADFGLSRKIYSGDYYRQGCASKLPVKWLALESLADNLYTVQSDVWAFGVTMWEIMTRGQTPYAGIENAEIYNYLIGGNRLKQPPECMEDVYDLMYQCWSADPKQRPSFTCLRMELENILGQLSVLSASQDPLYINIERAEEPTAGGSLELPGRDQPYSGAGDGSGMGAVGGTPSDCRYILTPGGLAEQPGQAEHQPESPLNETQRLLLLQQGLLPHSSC
Protocol: as §1

CIT = CIT (Homo sapiens, UniProt O14578); assay: biochemical; parameters: KINOMEscan scanMAX active site-directed competition binding assay, percent of control, 468 kinases; details: competition binding, percent of control
Protocol: as §1

MEK6 = target: T6, MEK6 (Homo sapiens, UniProt P52564); assay: biochemical; parameters: KINOMEscan scanMAX active site-directed competition binding assay, percent of control, 468 kinases; details: competition binding, percent of control
T6 construct: gene MAP2K6
Protocol: as §1

BLK = BLK (Homo sapiens, UniProt P51451); assay: biochemical; parameters: KINOMEscan scanMAX active site-directed competition binding assay, percent of control, 468 kinases; details: competition binding, percent of control
Protocol: as §1

MAP3K3 = MAP3K3 (Homo sapiens, UniProt Q99759); assay: biochemical; parameters: KINOMEscan scanMAX active site-directed competition binding assay, percent of control, 468 kinases; details: competition binding, percent of control
Chain of MAP3K3 (Q99759 whole entry): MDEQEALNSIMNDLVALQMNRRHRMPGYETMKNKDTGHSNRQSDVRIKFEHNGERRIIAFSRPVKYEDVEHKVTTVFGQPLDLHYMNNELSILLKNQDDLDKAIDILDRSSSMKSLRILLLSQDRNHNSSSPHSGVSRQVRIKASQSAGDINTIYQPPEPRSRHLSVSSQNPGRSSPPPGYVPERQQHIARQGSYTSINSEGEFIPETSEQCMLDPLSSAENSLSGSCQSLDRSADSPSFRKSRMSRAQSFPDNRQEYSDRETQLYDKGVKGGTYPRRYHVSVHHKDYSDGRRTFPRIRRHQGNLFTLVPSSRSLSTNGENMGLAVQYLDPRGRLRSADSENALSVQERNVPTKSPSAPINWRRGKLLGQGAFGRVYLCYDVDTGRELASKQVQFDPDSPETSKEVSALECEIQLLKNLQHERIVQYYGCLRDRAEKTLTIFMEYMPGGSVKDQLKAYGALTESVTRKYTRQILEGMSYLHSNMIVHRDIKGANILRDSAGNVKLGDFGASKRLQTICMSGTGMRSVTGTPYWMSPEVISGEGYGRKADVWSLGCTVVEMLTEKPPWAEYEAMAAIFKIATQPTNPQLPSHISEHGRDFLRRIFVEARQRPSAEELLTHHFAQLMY
Protocol: as §1

PIK3CA(H1047L) = PIK3CA(H1047L) (Homo sapiens, UniProt P42336, H1047L); assay: biochemical; parameters: KINOMEscan scanMAX active site-directed competition binding assay, percent of control, 468 kinases; details: competition binding, percent of control
Chain of PIK3CA(H1047L) (P42336 whole entry H1047L): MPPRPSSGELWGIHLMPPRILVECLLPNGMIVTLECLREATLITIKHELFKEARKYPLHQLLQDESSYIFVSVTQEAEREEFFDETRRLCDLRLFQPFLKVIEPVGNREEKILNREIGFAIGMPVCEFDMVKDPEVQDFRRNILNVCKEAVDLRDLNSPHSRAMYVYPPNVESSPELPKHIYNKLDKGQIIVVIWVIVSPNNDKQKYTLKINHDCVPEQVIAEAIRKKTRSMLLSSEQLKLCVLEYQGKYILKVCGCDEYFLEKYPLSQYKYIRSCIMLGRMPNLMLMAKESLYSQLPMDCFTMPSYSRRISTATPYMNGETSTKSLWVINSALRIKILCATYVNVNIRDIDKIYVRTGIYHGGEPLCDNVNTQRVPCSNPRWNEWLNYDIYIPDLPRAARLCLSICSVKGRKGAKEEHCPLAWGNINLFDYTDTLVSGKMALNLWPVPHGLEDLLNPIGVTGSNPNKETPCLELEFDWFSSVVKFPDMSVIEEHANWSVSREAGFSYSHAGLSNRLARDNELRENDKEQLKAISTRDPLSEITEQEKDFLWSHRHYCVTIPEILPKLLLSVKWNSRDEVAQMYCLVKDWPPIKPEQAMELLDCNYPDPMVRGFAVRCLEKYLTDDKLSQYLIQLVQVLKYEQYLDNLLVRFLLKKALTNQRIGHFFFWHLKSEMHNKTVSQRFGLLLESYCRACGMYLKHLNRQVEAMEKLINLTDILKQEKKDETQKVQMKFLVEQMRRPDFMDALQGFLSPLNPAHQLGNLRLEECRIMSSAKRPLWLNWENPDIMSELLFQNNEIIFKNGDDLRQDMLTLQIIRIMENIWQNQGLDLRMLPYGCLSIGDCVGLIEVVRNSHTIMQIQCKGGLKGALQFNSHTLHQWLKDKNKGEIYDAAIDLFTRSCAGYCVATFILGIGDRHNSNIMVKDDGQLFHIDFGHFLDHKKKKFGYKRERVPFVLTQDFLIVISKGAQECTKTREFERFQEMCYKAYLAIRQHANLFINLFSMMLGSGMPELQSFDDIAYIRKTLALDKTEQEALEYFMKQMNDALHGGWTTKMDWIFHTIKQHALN
Protocol: as §1

p38-alpha = target: T7, p38-alpha (Homo sapiens, UniProt Q16539); assay: biochemical; parameters: KINOMEscan scanMAX active site-directed competition binding assay, percent of control, 468 kinases; details: competition binding, percent of control
T7 construct: gene MAPK14
Protocol: as §1

DDR2 = DDR2 (Homo sapiens, UniProt Q16832); assay: biochemical; parameters: KINOMEscan scanMAX active site-directed competition binding assay, percent of control, 468 kinases; details: competition binding, percent of control
Protocol: as §1

MRCKB = target: T8, MRCKB (Homo sapiens, UniProt Q9Y5S2); assay: biochemical; parameters: KINOMEscan scanMAX active site-directed competition binding assay, percent of control, 468 kinases; details: competition binding, percent of control
T8 construct: gene CDC42BPB
Protocol: as §1

PRKD1 = PRKD1 (Homo sapiens, UniProt Q15139); assay: biochemical; parameters: KINOMEscan scanMAX active site-directed competition binding assay, percent of control, 468 kinases; details: competition binding, percent of control
Protocol: as §1

AKT3 = AKT3 (Homo sapiens, UniProt Q9Y243); assay: biochemical; parameters: KINOMEscan scanMAX active site-directed competition binding assay, percent of control, 468 kinases; details: competition binding, percent of control
Protocol: as §1

SBK1 = SBK1 (Homo sapiens, UniProt Q52WX2); assay: biochemical; parameters: KINOMEscan scanMAX active site-directed competition binding assay, percent of control, 468 kinases; details: competition binding, percent of control
Protocol: as §1

SMILES: C=C(C)[C@H]1CC=C(C)C(=O)C1 [S-carvone]
- remaining binding at 100 µM [1]: 27%
- remaining binding at 100 µM (CDK5): 61%
- remaining binding at 100 µM (CLK3): 99%
- remaining binding at 100 µM [2]: 84%
- remaining binding at 100 µM (ROS1): 83%
- remaining binding at 100 µM (PKAC-beta): 84%
- remaining binding at 100 µM (SgK110): 93%
- remaining binding at 100 µM [3]: 72%
- remaining binding at 100 µM (HCK): 76%
- remaining binding at 100 µM (TYRO3): 87%
- remaining binding at 100 µM (CIT): 81%
- remaining binding at 100 µM (MEK6): 82%
- remaining binding at 100 µM (BLK): 80%
- remaining binding at 100 µM (MAP3K3): 54%
- remaining binding at 100 µM (PIK3CA(H1047L)): 74%
- remaining binding at 100 µM (p38-alpha): 100%
- remaining binding at 100 µM (DDR2): 88%
- remaining binding at 100 µM (MRCKB): 91%
- remaining binding at 100 µM (PRKD1): 61%
- remaining binding at 100 µM (AKT3): 90%
- remaining binding at 100 µM (SBK1): 100%
